Source: ChEMBL document CHEMBL3885881, “DrugMatrix”

Species on record: Rattus norvegicus
Assay: DrugMatrix - Regimen: Daily Repeat
Type: toxicity, organism-based, Sprague-Dawley
Design: regimen Daily Repeat, gender Male, age 6-8 weeks
Conditions: in vivo, po, route oral GAVAGE, vehicle 100 % WATER; for ABSOLUTE BASOPHIL / ABSOLUTE EOSINOPHIL / ABSOLUTE LYMPHOCYTE / ABSOLUTE MONOCYTE / ABSOLUTE SEGMENTED NEUTROPHIL / BASOPHIL / EOSINOPHIL / ERYTHROCYTE COUNT / HEMATOCRIT / HEMOGLOBIN / LEUKOCYTE COUNT / LYMPHOCYTE / MEAN CORPUSCULAR HEMOGLOBIN / MEAN CORPUSCULAR HEMOGLOBIN CONCENTRATION / MEAN CORPUSCULAR VOLUME / MONOCYTE / NEUTROPHIL / NUCLEATED RED BLOOD CELLS / PLATELET COUNT: tissue Blood; for ALANINE AMINOTRANSFERASE / ALBUMIN / ALKALINE PHOSPHATASE / ASPARTATE AMINOTRANSFERASE / BLOOD UREA NITROGEN / CARBON DIOXIDE / CHLORIDE / CHOLESTEROL / CREATINE PHOSPHOKINASE / CREATININE / GLUCOSE / LACTATE DEHYDROGENASE / LIPASE / PHOSPHORUS / POTASSIUM / SODIUM / TOTAL BILIRUBIN / TOTAL PROTEIN / URIC ACID: tissue Plasma
[1] = 0 mg/kg, 72 h, dose level Control, time 3 day
[2] = 0 mg/kg, 120 h, dose level Control, time 5 day
[3] = 175 mg/kg, 72 h, dose level High, time 3 day

O=c1[nH]c(=O)n(C2CCCO2)cc1F (centres undefined) [TEGAFUR]
ABSOLUTE BASOPHIL [1]: 0 CELLS/uL | ABSOLUTE EOSINOPHIL [1]: 168.33 CELLS/uL | ABSOLUTE LYMPHOCYTE [1]: 13654.17 CELLS/uL | ABSOLUTE MONOCYTE [1]: 121 CELLS/uL | ABSOLUTE SEGMENTED NEUTROPHIL [1]: 1223.17 CELLS/uL | BASOPHIL [1]: 0% | EOSINOPHIL [1]: 1.17% | ERYTHROCYTE COUNT [1]: 5.7 x10E6/uL | HEMATOCRIT [1]: 35.33% | HEMOGLOBIN [1]: 13.97 G/DL | LEUKOCYTE COUNT [1]: 15.17 x10E3/uL | LYMPHOCYTE [1]: 89.83% | MEAN CORPUSCULAR HEMOGLOBIN [1]: 24.53 pg | MEAN CORPUSCULAR HEMOGLOBIN CONCENTRATION [1]: 39.53 G/DL | MEAN CORPUSCULAR VOLUME [1]: 62.05 fL | MONOCYTE [1]: 0.83% | NEUTROPHIL [1]: 8.17% | NUCLEATED RED BLOOD CELLS [1]: 0 /100WBC | PLATELET COUNT [1]: 1312.17 x10E3/uL | ALANINE AMINOTRANSFERASE [1]: 50.83 u/L | ALBUMIN [1]: 4.18 G/DL | ALKALINE PHOSPHATASE [1]: 334.17 u/L | ASPARTATE AMINOTRANSFERASE [1]: 82.17 u/L | BLOOD UREA NITROGEN [1]: 15.5 mg/dL | CARBON DIOXIDE [1]: 31.33 mmol/L | CHLORIDE [1]: 99.83 MEQ/L | CHOLESTEROL [1]: 76 mg/dL | CREATINE PHOSPHOKINASE [1]: 272.17 u/L | CREATININE [1]: 0.17 mg/dL | GLUCOSE [1]: 143 mg/dL | LACTATE DEHYDROGENASE [1]: 157.5 u/L | LIPASE [1]: 9.33 u/L | PHOSPHORUS [1]: 12.18 mg/dL | POTASSIUM [1]: 6.78 MEQ/L | SODIUM [1]: 143.9 MEQ/L | TOTAL BILIRUBIN [1]: 0.22 mg/dL | TOTAL PROTEIN [1]: 5.85 G/DL | URIC ACID [1]: 1.7 mg/dL | ABSOLUTE BASOPHIL [2]: 0 CELLS/uL | ABSOLUTE EOSINOPHIL [2]: 0 CELLS/uL | ABSOLUTE LYMPHOCYTE [2]: 13539.33 CELLS/uL | ABSOLUTE MONOCYTE [2]: 177.67 CELLS/uL | ABSOLUTE SEGMENTED NEUTROPHIL [2]: 2116.33 CELLS/uL | BASOPHIL [2]: 0% | EOSINOPHIL [2]: 0% | ERYTHROCYTE COUNT [2]: 5.78 x10E6/uL | HEMATOCRIT [2]: 36.13% | HEMOGLOBIN [2]: 14.1 G/DL | LEUKOCYTE COUNT [2]: 15.83 x10E3/uL | LYMPHOCYTE [2]: 85.83% | MEAN CORPUSCULAR HEMOGLOBIN [2]: 24.42 pg | MEAN CORPUSCULAR HEMOGLOBIN CONCENTRATION [2]: 39 G/DL | MEAN CORPUSCULAR VOLUME [2]: 62.55 fL | MONOCYTE [2]: 0.83% | NEUTROPHIL [2]: 13.33% | NUCLEATED RED BLOOD CELLS [2]: 0.17 /100WBC | PLATELET COUNT [2]: 1281.17 x10E3/uL | ALANINE AMINOTRANSFERASE [2]: 55.5 u/L | ALBUMIN [2]: 4.22 G/DL | ALKALINE PHOSPHATASE [2]: 345 u/L | ASPARTATE AMINOTRANSFERASE [2]: 92.5 u/L | BLOOD UREA NITROGEN [2]: 16.5 mg/dL | CARBON DIOXIDE [2]: 26.5 mmol/L | CHLORIDE [2]: 103.5 MEQ/L | CHOLESTEROL [2]: 78.5 mg/dL | CREATINE PHOSPHOKINASE [2]: 381.5 u/L | CREATININE [2]: 0.21 mg/dL | GLUCOSE [2]: 161.83 mg/dL | LACTATE DEHYDROGENASE [2]: 487.5 u/L | LIPASE [2]: 10.17 u/L | PHOSPHORUS [2]: 11.83 mg/dL | POTASSIUM [2]: 6.4 MEQ/L | SODIUM [2]: 146.95 MEQ/L | TOTAL BILIRUBIN [2]: 0.22 mg/dL | TOTAL PROTEIN [2]: 6.22 G/DL | URIC ACID [2]: 1.83 mg/dL | ABSOLUTE BASOPHIL [3]: 0 CELLS/uL | ABSOLUTE EOSINOPHIL [3]: 0 CELLS/uL | ABSOLUTE LYMPHOCYTE [3]: 11530.33 CELLS/uL | ABSOLUTE MONOCYTE [3]: 235 CELLS/uL | ABSOLUTE SEGMENTED NEUTROPHIL [3]: 434.67 CELLS/uL | BASOPHIL [3]: 0% | EOSINOPHIL [3]: 0% | ERYTHROCYTE COUNT [3]: 5.62 x10E6/uL | HEMATOCRIT [3]: 35% | HEMOGLOBIN [3]: 13.93 G/DL | LEUKOCYTE COUNT [3]: 12.2 x10E3/uL | LYMPHOCYTE [3]: 94.33% | MEAN CORPUSCULAR HEMOGLOBIN [3]: 24.87 pg | MEAN CORPUSCULAR HEMOGLOBIN CONCENTRATION [3]: 39.83 G/DL | MEAN CORPUSCULAR VOLUME [3]: 62.43 fL | MONOCYTE [3]: 2% | NEUTROPHIL [3]: 3.67% | NUCLEATED RED BLOOD CELLS [3]: 0 /100WBC | PLATELET COUNT [3]: 1245 x10E3/uL | ALANINE AMINOTRANSFERASE [3]: 377 u/L | ALBUMIN [3]: 4.23 G/DL | ALKALINE PHOSPHATASE [3]: 316.67 u/L | ASPARTATE AMINOTRANSFERASE [3]: 623.67 u/L | BLOOD UREA NITROGEN [3]: 18 mg/dL | CARBON DIOXIDE [3]: 25.33 mmol/L | CHLORIDE [3]: 98 MEQ/L | CHOLESTEROL [3]: 59.33 mg/dL | CREATINE PHOSPHOKINASE [3]: 3619.67 u/L | CREATININE [3]: 0.24 mg/dL | GLUCOSE [3]: 187.67 mg/dL | LACTATE DEHYDROGENASE [3]: 3501.33 u/L | LIPASE [3]: 13.33 u/L | PHOSPHORUS [3]: 13.57 mg/dL | POTASSIUM [3]: 9.03 MEQ/L | SODIUM [3]: 141.23 MEQ/L | TOTAL BILIRUBIN [3]: 0.23 mg/dL | TOTAL PROTEIN [3]: 5.9 G/DL | URIC ACID [3]: 2.9 mg/dL
